Results published in patent publication US20200255492A1, “LEPTIN PEPTIDES AND THEIR USE FOR TREATING NEUROLOGICAL DISORDERS” (UNIVERSITY OF DUNDEE, priority 2017, published 2020).

Test system: mitochondria
Assay: MitoRed analysis of mitochondrial morphology after 6-OHDA (cellular Parkinson's Disease model)
Format: cell-based
Conditions: 100 μM; 1 hour
Protocol: Cultures were established on 3 separate occasions in quadruplicate and stained with MitoRED to identify mitochondria after 1 hour of treatment. Statistical significance relative to untreated control is denoted with ** where P<0.01 and *** where P<0.001. Representative images of 100 μM 6-OHDA-treated MitoRED stained cultures (C) and 100 μM 6-OHDA and leptin116-130 co-treated MitoRED stained cultures are shown. Scale bar represents […].
The human neuroblastoma cell line, SH-SY5Y (ECACC, UK) was maintained in Dulbecco's Modified Eagle Medium supplemented with glucose ([…]) and 10% (v/v) cosmic calf serum (Fisher Scientific, UK) at 37° C. in a humidified atmosphere of 5% CO2, 95% air and allowed to reach 70-80% confluence before seeding. Cells (passage 10-18) were plated at 2×10^5 cells on 13 mm borosilicate class coverslips or at 10 000 cells per well in 96 well tissue culture plates (Nunc, VWR, UK) prior to treatment. Reagents used were (from Sigma UK unless stated) 1 nM human leptin, leptin (116-121), leptin (117-122) and leptin (117-125); 0.0001-1 nm murine leptin fragments leptin (116-121), leptin (117-122) and leptin (116-130); 100 μM 6-hydroxydopamine; 10 μM CuCl2; […] Aβ1-42.
Cells were treated with pre-warmed cell culture medium containing 1 μM MitoRed ((9-[2-(4′-Methylcoumarin-7′-oxycarbonyl)phenyl]-3,6-bis(diethylamino)xanthylium chloride) and returned to the incubator for 45 minutes. Following fixation in NBF for 15 minutes, cells were washed 3 times in PBS. Coverslips were mounted in fluorescence mountant onto microscope slides and imaged on the Zeiss Axio MR2 microscope. The mean mitochondrial area and index of fragmentation (number of mitochondria: total area of mitochondrial material) were calculated using Fiji.

For `NCCc1cc(O)c(O)cc1O` [6-OHDA, 6-hydroxydopamine, reference compound], the “cross-sectional area of individual mitochondria, 6-OHDA alone” value was “increase in the cross-sectional area of individual mitochondria” and the “mitochondrial fragmentation, 6-OHDA alone” value was “decrease in mitochondrial fragmentation”.
